US20110098305A1, “ARYLSULFONAMIDE COMPOUNDS, COMPOSITIONS AND METHODS OF USE” (priority 2008, published 2011)
pIC50: −log10 of the molar value.

Molecular target: T1, Bcl-XL (Homo sapiens, UniProt Q07817)
T1 construct: GST tagged Bcl-XL ΔC25 protein (0.6 nM Final concentration)
Experiment: Alphascreen competition assay, GST tagged Bcl-XL with biotinylated Bim BH3-26 peptide
Type: binding
Conditions: GST tagged Bcl-XL ΔC25 protein 0.6 nM, biotinylated Bim BH3-26 peptide 5.0 nM, read-out: IC50 against Bcl-XL
Excerpt: The following example describes the measurement of competition of compounds of the invention with Bim26-mer for a Bcl-2 homologue binding site.
Alphascreen (Amplified Luminescent Proximity Homogenous Assay) is a bead based technology which measures the interaction between molecules. The assay consists of two hydrogel coated beads which, when brought into close proximity by a binding interaction, results in the transfer of singlet oxygen from a donor bead to an acceptor bead.
Upon binding and excitation with laser light at 680 nm, a photosensitizer in the donor bead converts ambient oxygen to a more excited singlet state. This singlet oxygen then diffuses and reacts with a chemiluminescer in the acceptor bead. Fluorophores within the same bead are activated and result in the emission of light at 580-620 nm.
Screening of the compounds of the invention is performed using the Alphascreen GST (glutathione s-transferase) detection kit system. […] To this reaction mix, anti-GST coated acceptor beads and Streptavidin coated donor beads, both at 15 μg/ml Final concentration, are added and the assay mixture is incubated for 4 hours at room temperature before reading. […]
Assay buffer contains 50 mM Hepes pH 7.4, 10 mM DTT, 100 mM NaCl, 0.05% Tween and 0.1 mg/ml casein. […] Assays are performed in 384 well white Optiplates and is analyzed on the PerkinElmer Fusion alpha plate reader (Ex680, Em520-620 […]). […]

T1 sequence (Q07817 1-208 limits assumed, species assumed): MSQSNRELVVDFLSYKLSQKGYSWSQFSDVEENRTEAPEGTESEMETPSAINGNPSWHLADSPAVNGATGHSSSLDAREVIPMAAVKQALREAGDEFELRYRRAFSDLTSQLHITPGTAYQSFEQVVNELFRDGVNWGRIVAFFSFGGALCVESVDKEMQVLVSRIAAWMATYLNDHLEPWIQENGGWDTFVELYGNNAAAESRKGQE

Question: O=[N+]([O-])c1cc(S(=O)(=O)Nc2ncnc3cc(-c4ccc(F)cc4)ccc23)ccc1NCCSc1ccccc1 [compound c, N-(7-(4-fluorophenyl)quinazolin-4-yl)-3-nitro-4-(2-(phenylthio)ethylamino)benzenesulfonamide] was tested. Which pIC50 did it give?
Answer: 5.52
